# Test results reported in ChEMBL document CHEMBL2440034, “Towards new C6-rigid S-DABO HIV-1 reverse transcriptase inhibitors: synthesis, biological investigation and molecular modeling studies” (Bioorg Med Chem, 2013).
# Tests used:
# [1] = Selectivity index, ratio of CC50 for human MT4 cells to EC50 for wild type HIV-1 3B infected in human MT4 cells; type: toxicity, cell-based; conditions: read-out: Ratio CC50/EC50
# [2] = tested on: Human immunodeficiency virus 1; test: Antiviral activity against HIV-1 RESO56 harboring RT K103N/Y181C double mutant infected in human MT4 cells assessed as protection against virus-induced cytopathogenicity after 5 days by MTT assay; type: functional, organism-based; conditions: Human immunodeficiency virus 1, RESO56, MT4, 120 h
# [3] = tested on: Human immunodeficiency virus 2; test: Antiviral activity against HIV-2 ROD infected in human MT4 cells assessed as protection against virus-induced cytopathogenicity after 5 days by MTT assay; type: functional, organism-based; conditions: Human immunodeficiency virus 2, ISOLATE ROD, MT4, 120 h
# [4] = tested on: Human immunodeficiency virus 1; test: Antiviral activity against wild type HIV-1 3B infected in human MT4 cells assessed as protection against virus-induced cytopathogenicity after 5 days by MTT assay; type: functional, organism-based; conditions: Human immunodeficiency virus 1, 3B, MT4, 120 h
# [5] = Cytotoxicity against human MT4 cells assessed as cell viability after 5 days by MTT assay; type: cell-based
# [6] = tested on: Human immunodeficiency virus 1; test: Potency index, ratio of DDI EC50 to compound EC50 for wild type HIV-1 3B infected in human MT4 cells; type: functional
# [7] = molecular target: Human immunodeficiency virus type 1 reverse transcriptase (Human immunodeficiency virus 1, UniProt Q72547); test: Inhibition of recombinant wild type HIV-1 reverse transcriptase p66/p51 expressed in Escherichia coli JM109 using poly(rA)/oligo(dT)16 (1:1.2) as template/primer after 40 mins by spectrofluorometric analysis
structure (smiles),measurement,setting,value
COc1ccc(CSc2nc(C(=O)c3cccc(Br)c3)c(C)c(=O)[nH]2)cc1,selectivity ratio,[1],13
same,EC50,[2],> 201 µM
same,EC50,[3],> 201 µM
same,EC50,[4],16 µM
same,CC50 at 120 h,[5],201 µM
Cc1ccnc2c1NC(=O)c1cccnc1N2C1CC1 [NEVIRAPINE],EC50,[2],1.97 µM
same,EC50,[4],0.084 µM
same,CC50 at 120 h,[5],15 µM
O=C1Nc2ccc(Cl)cc2[C@@](C#CC2CC2)(C(F)(F)F)O1 [EFAVIRENZ],EC50,[2],0.46 µM
same,EC50,[4],0.0067 µM
same,CC50 at 120 h,[5],6.34 µM
COc1ccc(CSc2nc(C(=O)c3cccc(F)c3)c(C)c(=O)[nH]2)cc1,selectivity ratio,[1],35
same,EC50,[2],> 225 µM
same,EC50,[3],> 225 µM
same,EC50,[4],6.35 µM
same,CC50 at 120 h,[5],225 µM
Cc1cn([C@H]2C[C@H](N=[N+]=[N-])[C@@H](CO)O2)c(=O)[nH]c1=O [ZIDOVUDINE],selectivity ratio,[1],15800
same,EC50,[2],0.0066 µM
same,EC50,[3],0.0064 µM
same,EC50,[4],0.0059 µM
COc1ccc(CSc2nc(C(=O)c3ccc(Cl)cc3)c(C)c(=O)[nH]2)cc1,EC50,[3],> 151 µM
same,EC50,[4],≥ 151 µM
same,CC50 at 120 h,[5],≥ 151 µM
CCc1c(C(=O)c2cccc(F)c2)nc(SCc2ccc(OC)cc2)[nH]c1=O,selectivity ratio,[1],436
same,Ratio EC50,[6],50
same,EC50,[2],> 167 µM
same,EC50,[3],> 167 µM
same,EC50,[4],0.38 µM
same,CC50 at 120 h,[5],167 µM
same,IC50,[7],0.19 µM
COc1ccc(CSc2nc(C(=O)c3ccc(F)cc3)c(C(C)C)c(=O)[nH]2)cc1,selectivity ratio,[1],21
same,EC50,[2],> 135 µM
same,EC50,[3],> 135 µM
same,EC50,[4],6.52 µM
same,CC50 at 120 h,[5],135 µM
COc1ccc(CSc2nc(C(=O)c3cc(F)cc(F)c3)c(C)c(=O)[nH]2)cc1,selectivity ratio,[1],32
same,EC50,[2],> 86.9 µM
same,EC50,[3],> 86.9 µM
same,EC50,[4],2.71 µM
same,CC50 at 120 h,[5],86.9 µM
COc1ccc(CSc2nc(C(=O)c3ccc(F)cc3)c(C)c(=O)[nH]2)cc1,EC50,[3],> 325 µM
same,EC50,[4],≥ 325 µM
same,CC50 at 120 h,[5],≥ 325 µM
COc1ccc(CSc2nc(C(=O)c3ccc(F)c(F)c3)c(C)c(=O)[nH]2)cc1,selectivity ratio,[1],≤ 1
same,EC50,[2],> 127 µM
same,EC50,[3],> 127 µM
same,EC50,[4],≥ 127 µM
same,CC50 at 120 h,[5],127 µM
O=c1[nH]cnc2c1ncn2[C@H]1CC[C@@H](CO)O1 [DIDANOSINE],selectivity ratio,[1],12
same,EC50,[3],15.3 µM
same,EC50,[4],17.2 µM
same,CC50 at 120 h,[5],212 µM
COc1ccc(CSc2nc(C(=O)c3cccc(Cl)c3)c(C)c(=O)[nH]2)cc1,selectivity ratio,[1],21
same,EC50,[2],> 152 µM
same,EC50,[3],> 152 µM
same,EC50,[4],7.21 µM
same,CC50 at 120 h,[5],152 µM
COc1ccc(CSc2nc(C(=O)c3ccc(Br)cc3)c(C)c(=O)[nH]2)cc1,selectivity ratio,[1],≤ 1
same,EC50,[3],> 252 µM
same,EC50,[4],≥ 252 µM
same,CC50 at 120 h,[5],252 µM
CCc1c(C(=O)c2cccc(Br)c2)nc(SCc2ccc(OC)cc2)[nH]c1=O,selectivity ratio,[1],84
same,EC50,[2],> 98.9 µM
same,EC50,[3],> 98.9 µM
same,EC50,[4],1.18 µM
same,CC50 at 120 h,[5],98.9 µM
COc1ccc(CSc2nc(C(=O)c3ccc(C(C)(C)C)cc3)c(C)c(=O)[nH]2)cc1,selectivity ratio,[1],≤ 1
same,EC50,[3],> 126 µM
same,EC50,[4],≥ 126 µM
same,CC50 at 120 h,[5],126 µM
COc1ccc(CSc2nc(C(=O)c3ccccc3F)c(C)c(=O)[nH]2)cc1,selectivity ratio,[1],124
same,EC50,[2],> 175 µM
same,EC50,[3],> 175 µM
same,EC50,[4],1.4 µM
same,CC50 at 120 h,[5],175 µM
same,IC50,[7],2.41 µM
COc1ccc(CSc2nc(C(=O)c3ccccc3F)c(C(C)C)c(=O)[nH]2)cc1,selectivity ratio,[1],145
same,Ratio EC50,[6],50
same,EC50,[2],> 38.2 µM
same,EC50,[3],> 38.2 µM
same,EC50,[4],0.27 µM
same,CC50 at 120 h,[5],38.2 µM
same,IC50,[7],0.072 µM
Nc1ccn([C@H]2CC[C@@H](CO)O2)c(=O)n1 [ZALCITABINE],selectivity ratio,[1],208
same,EC50,[4],0.46 µM
same,CC50 at 120 h,[5],94.7 µM
COc1ccc(CSc2nc(C(=O)c3cccc(F)c3)c(C(C)C)c(=O)[nH]2)cc1,selectivity ratio,[1],472
same,Ratio EC50,[6],50
same,EC50,[2],> 132 µM
same,EC50,[3],> 132 µM
same,EC50,[4],0.29 µM
same,CC50 at 120 h,[5],132 µM
same,IC50,[7],0.04 µM
COc1ccc(CSc2nc(C(=O)c3ccc(Br)cc3)c(C(C)C)c(=O)[nH]2)cc1,selectivity ratio,[1],≤ 1
same,EC50,[3],> 42.5 µM
same,EC50,[4],≥ 42.5 µM
same,CC50 at 120 h,[5],42.5 µM
CC(C)Nc1cccnc1N1CCN(C(=O)c2cc3cc(NS(C)(=O)=O)ccc3[nH]2)CC1 [DELAVIRDINE],selectivity ratio,[1],379
same,EC50,[2],> 36.2 µM
same,EC50,[4],0.095 µM
same,CC50 at 120 h,[5],36.2 µM
CCc1c(C(=O)c2cc(F)cc(F)c2)nc(SCc2ccc(OC)cc2)[nH]c1=O,selectivity ratio,[1],541
same,Ratio EC50,[6],50
same,EC50,[2],> 139 µM
same,EC50,[3],> 139 µM
same,EC50,[4],0.26 µM
same,CC50 at 120 h,[5],139 µM
same,IC50,[7],0.16 µM
